“Also recorded” adds a separate entry of the source.
Assays:
T. ni JHE [1] = test: removal of inhibitor by dialysis (reversibility of inhibition); format: biochemical, Trichoplusia ni; conditions: for enzyme activity after dialysis: 48 hours after starting the dialysis; for t0.5 of reactivation / type of inhibition of T. ni JHE: dialysis
T. ni larvae [2] = test: mortality of T. ni larvae after repeated topical applications; format: in vivo, Trichoplusia ni; conditions: for mortality at 0.2 µmol/application: Trichoplusia, topical, repeated applications of 2μ liters (0.2 moles/application), Example VIII; for mortality: repeated 1μ liter applications of 1×10^-1 M solution
Method: (§1) T. ni larvae are treated with 1 or 2μ liters of ethanol, with TFPOS, wit o-ethyl-S-phenyl phosphoramidothiolate (EPPAT), or with 1,1,1-trifluorotetradecan-2-one (TFT) in 1×10^-1 M ethanol solutions on the dorsum of the thorax three times per day (4, 12 and 17 hr after lights on) during the first two days of the last larval stadium. The insects were held under standard rearing conditions (27° C., 14 hr light, 10 hr dark). The time of pupation was checked daily at 4 hr after lights on and the pupae were checked for successful emergence two weeks later.
(§2) Larvae were treated on the dorsum of the thorax with 1 or 2μ liters of ethanol (control) and with 1 or 2μ liters, respectively, of 10^-1 M TFT, TFPOS, DTFT or EPPAT in ethanol, 3 times per day at 4, 12 and 17 h ALO (after lights on) on L5Dl and D2. Time of pupation was checked daily at 4 h ALO, and emergence was checked 2 weeks after treatment. L5Dl larvae 4 h ALO were also treated, but only once with 1μ liter ethanol or with 1μ liter of 10-1 M TFT, TFPOS, or EPPAT in ethanol, and then were bled at 1, 8, 12, 23, 28, or 32 h after treatment. Hemolymph was collected from five larvae, mixed and frozen at -60° C. until assayed for JHE and α-NAE activity. […] Death usually occured during the larval-pupal transformation, with the control mortality at 2μ liters of ethanol being 1%, TFT at 0.2M being 6%, an TFPOS being 4%.

T. ni JHE [3] = test: in vivo inhibition of T. ni JHE after topical application; design: species or system Trichoplusia ni; conditions: for maximum percent inhibition obtainable after treatment / selectivity for JHE in vivo: compared with EPPAT; for time of maximum inhibition of T. ni JHE after topical application: single dose 0.1μ moles/larve
Method: as §2
In another study, the in vivo inhibition of T. ni JHE following a single dose (0.1μ moles/larve) of EPPAT and TFPOS respectively was monitored. Maximum inhibition of T. ni JHE was obtained one hour after topical application for each.

JH esterase [4] = test: JH esterase inhibition in T. ni hemolymph; format: biochemical, Trichoplusia ni
Method: JH esterase activity was monitored in the hemolymph collected from last stadium day two larvae of the cabbage looper, Trichoplusia ni, Lepidoptera, Noctuidae. The plasma was diluted (v/v) in sodium phosphate buffer (pH 7.4, 0.08M with 0.01% [w/v] phenyulthiourea) and frozen at -60° C. until used. The inventive compounds were added in 1μ liter of ethanol to 100μ liters of the diluted plasma and preincubated for 10 min at 30° C. before adding substrate (ClO^3 H JH III New England Nuclear and unlabeled E, E JH III, Calbiochem) in 1μ liter of ethanol to give a final concentration of 5×10^-6 M JH III containing about 30,000 dpm/assay (Hammock and Sparks, Anal. Biochem. 82, 573 (1977).
(§3) In each case, at least three replicates of each inhibitor concentration were used. A minimum of two inhibitor concentrations showing greater and less than 50% inhibition were used to determine the I50 values from semilog plots except in the case of weaker inhibitors. Only those points on the apparently linear portion of the curve were used to calculate the I50 's.

[5] = molecular target: T1, Type VI-S electric eel AChE (Electrophorus electricus, UniProt O42275); test: acetylcholinesterase (AChE) activity; format: biochemical; conditions: acetylthiocholine iodide 5×10^-4 M, 37° C.; * = greater than; read-out: I50 (M) AChE
T1 construct: purchased Sigma Type VI-S
T1 sequence (O42275 24-633): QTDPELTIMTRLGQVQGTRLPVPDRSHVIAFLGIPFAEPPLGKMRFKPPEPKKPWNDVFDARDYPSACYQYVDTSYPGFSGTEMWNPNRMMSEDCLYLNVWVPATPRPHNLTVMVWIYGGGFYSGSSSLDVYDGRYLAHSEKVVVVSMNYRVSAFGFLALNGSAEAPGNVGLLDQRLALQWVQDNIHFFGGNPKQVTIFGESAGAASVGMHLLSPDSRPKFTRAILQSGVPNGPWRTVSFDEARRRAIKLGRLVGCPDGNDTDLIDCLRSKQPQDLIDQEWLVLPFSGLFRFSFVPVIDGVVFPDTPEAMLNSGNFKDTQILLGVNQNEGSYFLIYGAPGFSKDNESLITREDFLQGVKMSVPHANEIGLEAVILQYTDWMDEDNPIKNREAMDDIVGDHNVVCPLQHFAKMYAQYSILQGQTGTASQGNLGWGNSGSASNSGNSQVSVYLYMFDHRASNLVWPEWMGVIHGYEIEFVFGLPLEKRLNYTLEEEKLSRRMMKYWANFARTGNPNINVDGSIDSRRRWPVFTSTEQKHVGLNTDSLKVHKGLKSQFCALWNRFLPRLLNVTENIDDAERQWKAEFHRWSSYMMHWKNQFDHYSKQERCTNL
Method: For acetylcholinesterase (AChE) activity, 20μ liters of acetylthiocholine iodide (Sigma) in sodium phosphate buffer (0.05M, ph 7.2) was added to Type VI-S electric eel AChE (Sigma, 10 ng with 2-400 units/mg protein) in 3 ml the same buffer to give a final substrate concentration of 5×10^-4 M. The assay was run at 37° C.
(§4) For AChE, trypsin and α-ChT, the inhibitor was added to ethanol 10 min prior to the substrate and preincubated at the same temperature used for the actual assay. In no case was greater than 1% v/v ethanol added, and ethanol controls were always run. For the spectrophotometric enzyme assays, initial studies were run on a Varian-Cary 219 UV/visible spectrophotometer, while subsequent assays were run on a Gilford manual EIA reading using disposable cuvettes.
as §3

[6] = molecular target: T2, bovine pancreatic type III trypsin (Bos taurus, UniProt P00760); test: trypsin activity; format: biochemical; conditions: p-toluenesulfonyl-L-arginine methyl ester 1×10^-4 M, 25° C.; read-out: I50 (M) Trypsin (*greater than)
T2 construct: purchased Sigma type III
T2 sequence (P00760 24-246): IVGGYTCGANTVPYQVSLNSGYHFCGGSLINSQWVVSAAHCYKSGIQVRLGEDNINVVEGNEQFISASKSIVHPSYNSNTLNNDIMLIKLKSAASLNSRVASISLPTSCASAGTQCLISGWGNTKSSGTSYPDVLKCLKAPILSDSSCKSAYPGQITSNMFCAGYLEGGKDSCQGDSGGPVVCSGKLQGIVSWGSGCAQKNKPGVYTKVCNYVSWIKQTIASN
Method: For trypsin, 1.5 ml of p-toluenesulfonyl-L-arginine methyl ester (Sigma) in Tris HCl buffer (pH 8.1, 0.04M with 0.1M CaCl2) was added to 1.5 ml of the same buffer containing bovine pancreatic type III trypsin (Sigma, 0.24 μg) to give a final substrate concentration of 1×10^-4 M. The assay was performed at 25° C.
as §4, §3

α-NAE = test: α-Naphtyl acetate (α-NA) hydrolysis in T. ni prepupal hemolymph; format: biochemical, Trichoplusia ni; conditions: hemolymph of T. ni prepupae, substrate 2.3×10^-4 M; read-out: I50 (M) α-NAE
Method: α-Naphtyl acetate (α-NA) hydrolysis was monitored similarly in the hemolymph of prepupae of T. ni (fifth stadium, day 4) with a final substrate of 2.3×10^-4 M. Plasma dilutions and incubation times were chosen to give a hydrolysis rate which was linear with time.
as §3

T. ni larvae [7] = test: topical treatment of T. ni larvae, time of pupation; format: in vivo, Trichoplusia ni; conditions: for delay of pupation versus ethanol controls: 0.1 and 0.2μ mole per application, 3 times per day, L5D1 and D2, topical; for delay of pupation: topical
Method: as §1, §2

clofibrate esterase = test: hydrolysis of clofibrate by microsomal protein; format: biochemical, human
Description: The drug clofibrate (α-[4-chlorophenoxy)-α-methylpropionate; Atromid-S) is one of a class of compounds given to heart patients as a hypolipidemic agent.

JH esterase [8] = conditions: crude juvenile hormone esterase from the cabbage looper; cited from earlier work
T. ni larvae [9] = conditions: cited from earlier work

Compound | enzyme activity after dialysis (T. ni JHE [1]) | t0.5 of reactivation (T. ni JHE [1]) | type of inhibition of T. ni JHE (T. ni JHE [1]) | mortality at 0.2 µmol/application (T. ni larvae [2]) [%] | mortality (T. ni larvae [2]) | maximum percent inhibition obtainable after treatment (T. ni JHE [3]) | selectivity for JHE in vivo (T. ni JHE [3]) | time of maximum inhibition of T. ni JHE after topical application (T. ni JHE [3]) | IC50 [5] [M] | IC50 [6] [M] | IC50 (α-NAE) [M] | in vitro inhibition of juvenile hormone esterase (literature) (JH esterase [8]) | in vivo activity, topical application to cabbage looper (literature) (T. ni larvae [9]) | delay of pupation versus ethanol controls (T. ni larvae [7]) | also measured
CCCCCCCCSCC(=O)C(F)(F)F [Compound 1, 1,1,1-Trifluoro-3-thioocytylpropan-2-one] | restored gradually to the same activity as in the uninhibited enzyme | more than 20 hours | reversible inhibitors | 4 | No mortality | as effective | more selective for JHE in vivo than EPPAT | one | 2.3e-06 | > 1e-05 | 1.2e-06 |  |  |  | inhibition I50 value, juvenile hormone esterases (JH esterase [4]; in words): nanomolar range; times more active in vitro for juvenile hormone esterase than TFT (JH esterase [4]; versus TFT): over 40 times; delay of pupation versus ethanol controls (T. ni larvae [7]; listed as TFPOS): pupation was delayed with respect to the controls in a dose-dependent manner; delay of pupation (T. ni larvae [7]; 0.2μ moles/application): more dramatic; in vivo activity (T. ni larvae [7]; in vivo): pronounced in vivo activity; delay of pupation (T. ni larvae [7]; repeated doses of 0.1μ moles, first two days of last larval stadium): effective in delaying the pupation
O=C(CSc1ccc(Cl)cc1)C(F)(F)F [Compound 19] |  |  |  |  |  |  |  |  |  |  |  |  |  |  | Wilkinson kinetics (clofibrate esterase; clofibrate hydrolysis): curves expected for a slowly reversible inhibitor; effect on hydrolysis of clofibrate (clofibrate esterase; low concentrations, Vm 104 nmol/min mg microsomal protein, Km 5.5 mM, ethanol release): significant delay in reacting maximal velocity
CC(C)=CCC/C(C)=C/CCSCC(=O)C(F)(F)F [Compound 31, (E)-8,12-dimethyl-4-thia-1,1,1-trifluorotrideca-7,11-dien-2-one] |  |  |  |  |  | as effective | more selective for JHE in vivo than EPPAT |  | 6.2e-05 | > 0.0001 | 7.2e-07 |  |  |  | IC50 (JH esterase [4]; diluted T. ni larval plasma, 10 min preincubation at 30° C., 5×10^-6 M JH III, read-out: I50 (M) JHE): 3.2e-09 M; delay of pupation versus ethanol controls (T. ni larvae [7]; listed as DTFT): pupation was delayed with respect to the controls in a dose-dependent manner
CCOP(N)(=O)Sc1ccccc1 (centres unmarked) [EPPAT, O-ethyl-S-phenyl phosphoramidothiolate, reference compound] | almost complete loss of enzyme activity |  | irreversible inhibitor |  |  |  |  | one |  |  |  | potent in vitro inhibition of juvenile hormone esterase | disrupt development of the cabbage looper | delayed preparation at both doses; also recorded: pupation was delayed with respect to the controls in a dose-dependent manner | persistence of in vivo inhibition (T. ni JHE [3]; compared with TFPOS and DTFT): more persistent
CCCCCCCCCCCCC(=O)C(F)(F)F [TFT, 1,1,1-trifluorotetradecan-2-one, reference compound] | restored gradually to the same activity as in the uninhibited enzyme | more than 20 hours | reversible inhibitors | 6 | No mortality |  |  |  |  |  |  | relatively greater juvenile hormone esterase activity in vitro than EPPAT | lack of pronounced in vivo activity | neither dose of TFT resulted in a delay in pupation; also recorded: no difference in the time of pupation; also recorded: no such in vivo effect | 

Source: patent US4562292A, “Trifluoromethylketone sulfides and reversible enzyme inhibition therewith” (priority 1983, dated 1985)
